Experimental data: ChEMBL document CHEMBL1201862, “PubChem BioAssay data set” (2004)
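Compound exposure: 48 hours, 5 concentrations, 96-well plates. GI50: concentration for 50% inhibition of growth.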 Calls of active or inactive are those of the source. Cut-off read from the data, not from the text of the source: active = GI50 up to about 1.1 µM and inactive = higher.

Columns and labels:
Assay in all cases: inhibition of tumour cell growth, NCI panel, 48 h
UACC-257 = test system: UACC-257
EKVX = test system: EKVX
OVCAR-5 = test system: OVCAR-5
NCI/ADR-RES = test system: NCI/ADR-RES
HL-60 = test system: HL-60
SF-268 = test system: SF-268
IGROV-1 = test system: IGROV-1
SK-MEL-2 = test system: SK-MEL-2
RXF 393 = test system: RXF 393
CAKI-1 = test system: CAKI-1
HT-29 = test system: HT-29
MDA-MB-231 = test system: MDA-MB-231
NCI-H460 = test system: NCI-H460
HOP-62 = test system: HOP-62
RPMI-8226 = test system: RPMI-8226
MDA-N = test system: MDA-N
A498 = test system: A498
HCC 2998 = test system: HCC 2998
OVCAR-3 = test system: OVCAR-3
MOLT-4 = test system: MOLT-4

| Structure (SMILES) | GI50 (UACC-257) | GI50 (EKVX) | GI50 (OVCAR-5) | GI50 (NCI/ADR-RES) | GI50 (HL-60) | GI50 (SF-268) | GI50 (IGROV-1) | GI50 (SK-MEL-2) | GI50 (RXF 393) | GI50 (CAKI-1) | GI50 (HT-29) | GI50 (MDA-MB-231) | GI50 (NCI-H460) | GI50 (HOP-62) | GI50 (RPMI-8226) | GI50 (MDA-N) | GI50 (A498) | GI50 (HCC 2998) | GI50 (OVCAR-3) | GI50 (MOLT-4) |
| --- | --- | --- | --- | --- | --- | --- | --- | --- | --- | --- | --- | --- | --- | --- | --- | --- | --- | --- | --- | --- |
| CC1=NN(c2nc(N)nc(/C(C#N)=C/c3ccc([N+](=O)[O-])o3)n2)C(C)(C)C1 | 10 µM (inactive) | 3.37 µM (inactive) | 1.58 µM (inactive) | 10.8 µM (inactive) | 2.35 µM (inactive) | 3.85 µM (inactive) | 2.05 µM (inactive) | 6.34 µM (inactive) | 1.75 µM (inactive) | 1.85 µM (inactive) | 2.09 µM (inactive) | 1.81 µM (inactive) | 2.57 µM (inactive) | 17.2 µM (inactive) | 3.01 µM (inactive) | 3.05 µM (inactive) | 17.8 µM (inactive) | 15.8 µM (inactive) | 3.32 µM (inactive) | 2.26 µM (inactive) |
| Cc1cc2occ(S(=O)(=O)NC(=O)Nc3ccc(Cl)cc3)c(=O)c2c(=O)o1 | > 100 µM (inactive) | > 100 µM (inactive) | > 100 µM (inactive) | > 100 µM (inactive) | > 100 µM (inactive) | > 100 µM (inactive) | > 100 µM (inactive) | > 100 µM (inactive) | > 100 µM (inactive) | > 100 µM (inactive) | > 100 µM (inactive) | > 100 µM (inactive) | > 100 µM (inactive) | > 100 µM (inactive) | > 100 µM (inactive) | > 100 µM (inactive) | > 100 µM (inactive) | > 100 µM (inactive) | > 100 µM (inactive) | > 100 µM (inactive) |
| O=c1[nH]nc(-c2ccccc2)n1/N=C/c1ccc([N+](=O)[O-])o1 | 4.92 µM (inactive) | 8.63 µM (inactive) | 10.4 µM (inactive) | 5.85 µM (inactive) | 8.89 µM (inactive) | 5.57 µM (inactive) | 2.57 µM (inactive) | 5.21 µM (inactive) | 0.897 µM (active) | 7.13 µM (inactive) | 2.49 µM (inactive) | 6.71 µM (inactive) | 5.12 µM (inactive) | 6.11 µM (inactive) | 2.04 µM (inactive) | 3.25 µM (inactive) | 9.12 µM (inactive) | 5.26 µM (inactive) | 0.993 µM (active) | 0.962 µM (active) |
| N#CC1(C#N)C2C=CC(C3CCC=C32)C1(C#N)C#N (stereo not given) | > 10 µM (inactive) | > 10 µM (inactive) | > 10 µM (inactive) | > 10 µM (inactive) | 1.68 µM (inactive) | > 10 µM (inactive) | > 10 µM (inactive) | > 10 µM (inactive) | > 10 µM (inactive) | 6.37 µM (inactive) | > 10 µM (inactive) | > 10 µM (inactive) | > 10 µM (inactive) | > 10 µM (inactive) | 2.83 µM (inactive) | > 10 µM (inactive) | > 10 µM (inactive) | > 10 µM (inactive) | > 10 µM (inactive) | 2.14 µM (inactive) |
| O=C(CC(=O)N1N=C(c2ccccc2)C(/N=N/c2ccc(S(=O)(=O)CCOS(=O)(=O)O)cc2)C1=O)Nc1ccc(Cl)cc1 (stereo not given) | > 100 µM (inactive) | > 100 µM (inactive) | > 100 µM (inactive) | > 100 µM (inactive) | > 100 µM (inactive) | > 100 µM (inactive) | 8.75 µM (inactive) | > 100 µM (inactive) | > 100 µM (inactive) | > 100 µM (inactive) | > 100 µM (inactive) | 91.6 µM (inactive) | > 100 µM (inactive) | > 100 µM (inactive) | > 100 µM (inactive) | > 100 µM (inactive) | > 100 µM (inactive) | 59.4 µM (inactive) | > 100 µM (inactive) | 79.3 µM (inactive) |
| C=C(Br)C(Br)(CCl)CCC(Cl)C(C)C.C=C(Cl)C(Br)(CCl)CCC(Cl)C(C)C (stereo not given) | 1.67 µM (inactive) | 15.8 µM (inactive) | 2.84 µM (inactive) | 1.94 µM (inactive) | 0.413 µM (active) | 1.75 µM (inactive) | 1.88 µM (inactive) | 1.47 µM (inactive) | 2.18 µM (inactive) | 2.81 µM (inactive) | 1.41 µM (inactive) | 1.24 µM (inactive) | 1.57 µM (inactive) | 2.21 µM (inactive) | 0.208 µM (active) | 1.71 µM (inactive) | 17.7 µM (inactive) | 3.01 µM (inactive) | 2.29 µM (inactive) | 0.439 µM (active) |
| CCC12C=CCN3CCC4(c5cc(C(c6ccc(OC)cc6)C6Cc7ccccc7N6)c(OC)cc5N(C)C4C(O)(C(=O)OC)C1O)C32 (stereo not given) | 20.5 µM (inactive) | 36.1 µM (inactive) | 36.7 µM (inactive) | 26.1 µM (inactive) | 1.72 µM (inactive) | 44.6 µM (inactive) | 16.9 µM (inactive) | 15.3 µM (inactive) | 14.3 µM (inactive) | 18.7 µM (inactive) | 18.2 µM (inactive) | 16.1 µM (inactive) | 17.6 µM (inactive) | 26.5 µM (inactive) | 1.83 µM (inactive) | 18.8 µM (inactive) | 11.6 µM (inactive) | 20 µM (inactive) | 19.2 µM (inactive) | 2.26 µM (inactive) |
| O=C(O)c1cccc(CC(Br)C(=O)O)c1 (stereo not given) | > 100 µM (inactive) | > 100 µM (inactive) | > 100 µM (inactive) | > 100 µM (inactive) | > 100 µM (inactive) | > 100 µM (inactive) | > 100 µM (inactive) | > 100 µM (inactive) | > 100 µM (inactive) | > 100 µM (inactive) | > 100 µM (inactive) | > 100 µM (inactive) | > 100 µM (inactive) | > 100 µM (inactive) | > 100 µM (inactive) | > 100 µM (inactive) | > 100 µM (inactive) | > 100 µM (inactive) | > 100 µM (inactive) | > 100 µM (inactive) |
